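Interpolation was linear, between the two tested concentrations surrounding the appropriate level; five concentrations were tested over 48 hours in 96-well plates. The concentration for 50% growth inhibition is given as GI50.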 Activity calls are given as the source filed them. No stated cut-off is given here; in the data, active = GI50 up to about 1.1 µM and inactive = higher.
How the values were obtained:
Test in all cases: NCI-60 cell line screen, 48 h
[1] = tested on: CCRF-CEM
[2] = tested on: COLO 205
[3] = tested on: MCF7
[4] = tested on: MOLT-4
[5] = tested on: Malme-3M
[6] = tested on: NCI-H226
[7] = tested on: OVCAR-4
[8] = tested on: OVCAR-5
[9] = tested on: PC-3
[10] = tested on: SF-295
[11] = tested on: SK-MEL-28
[12] = tested on: SK-MEL-5
[13] = tested on: SN12C
[14] = tested on: SNB-19
[15] = tested on: SW-620
[16] = tested on: UACC-257
[17] = tested on: UACC-62
[18] = tested on: U-251
[19] = tested on: DU-145

Measured: GI50

COc1ccc2cc1Oc1ccc(cc1)CC1c3c(cc(OC)c4c3Oc3cc5c(cc3O4)CCNC5C2)CCN1C (stereo unspecified)
inactive: [1] 1.24 µM | [2] 1.72 µM | [3] 1.85 µM | [4] 1.46 µM | [5] 2.09 µM | [6] 5.52 µM | [7] 2.33 µM | [8] 3.6 µM | [9] 1.88 µM | [10] 1.91 µM | [11] 1.88 µM | [12] 2.06 µM | [13] 1.91 µM | [14] 2 µM | [15] 1.77 µM | [16] 1.67 µM | [17] 1.82 µM

CCOP(=O)(OCC)/C(C#N)=C/c1cn(C)cn1
inactive: [1] > 100 µM | [2] > 100 µM | [3] > 100 µM | [4] > 10 µM | [5] > 100 µM | [6] > 100 µM | [7] > 100 µM | [8] > 100 µM | [9] > 100 µM | [10] > 100 µM | [11] > 100 µM | [12] > 10 µM | [13] > 100 µM | [14] > 100 µM | [15] > 100 µM | [18] > 100 µM | [16] > 100 µM | [17] > 100 µM

Cc1c(C(=O)CC(=O)C(=O)Nc2c(C(C)C)cccc2C(C)C)[n+]([O-])c2ccccc2[n+]1[O-]
inactive: [1] 2.34 µM | [2] 3.76 µM | [4] 2.9 µM | [5] 7.19 µM | [6] 22.6 µM | [7] 3.48 µM | [8] 21.3 µM | [10] 14.8 µM | [11] 13.7 µM | [12] 10.4 µM | [13] 3.15 µM | [14] 7.73 µM | [15] 3.87 µM | [18] 3.09 µM | [16] 3.36 µM | [17] 9.98 µM

COC(=O)Cc1cc2c(cc1C(=O)c1ccc(N)cc1)OCO2
inactive: [1] 1.48 µM | [2] 1.21 µM | [19] 4.11 µM | [4] 1.63 µM | [5] > 100 µM | [6] 22.2 µM | [7] 11.2 µM | [8] 6.46 µM | [9] 1.73 µM | [11] 3.36 µM | [13] 5.96 µM | [14] 8.83 µM | [15] 1.19 µM | [18] 3.05 µM
active: [3] 0.902 µM | [10] 1.12 µM | [12] 0.435 µM | [17] 1.11 µM

O=c1[nH]c2cc([N+](=O)[O-])ccc2nc1/C(=N\NO)C(O)c1ccc([N+](=O)[O-])cc1 (stereo unspecified)
inactive: [1] 66.2 µM | [2] > 100 µM | [4] > 100 µM | [5] > 100 µM | [6] > 100 µM | [7] > 100 µM | [8] > 100 µM | [10] > 100 µM | [11] > 100 µM | [12] > 100 µM | [13] 98.9 µM | [14] > 100 µM | [15] > 100 µM | [18] > 100 µM | [16] > 100 µM | [17] 59.6 µM

S=P1(Sc2ccccc2)Oc2ccc3ccccc3c2-c2c(ccc3ccccc23)O1
inactive: [1] > 100 µM | [2] > 100 µM | [3] 71.8 µM | [4] > 82.6 µM | [5] > 100 µM | [6] > 100 µM | [7] > 100 µM | [8] > 100 µM | [10] > 100 µM | [11] > 78.5 µM | [12] > 100 µM | [13] > 100 µM | [14] > 100 µM | [15] > 100 µM | [18] > 95.5 µM | [16] > 100 µM | [17] > 100 µM

Nc1nc2c(c(-c3ccc(F)cc3)n1)COC/C2=C\c1ccc(F)cc1
inactive: [1] 52.5 µM | [2] > 100 µM | [19] > 100 µM | [3] 28.1 µM | [4] 51.2 µM | [5] 12.7 µM | [6] 27.5 µM | [7] > 100 µM | [8] > 100 µM | [9] 43.3 µM | [10] 35.5 µM | [11] > 100 µM | [12] 56 µM | [13] > 100 µM | [14] 24.8 µM | [15] > 100 µM | [18] 15.4 µM | [16] 45.6 µM | [17] 79.4 µM

COc1ccc(/N=N/c2c(-c3ccccc3)nn(C(=O)CC(=O)Nc3ccc(OC)cc3)c2-c2ccccc2)cc1
inactive: [1] 23.7 µM | [2] > 100 µM | [4] 31.8 µM | [5] > 100 µM | [6] > 100 µM | [7] > 100 µM | [8] > 100 µM | [10] 21.1 µM | [11] > 100 µM | [12] > 100 µM | [13] > 100 µM | [14] 29.9 µM | [15] > 100 µM | [18] 58.3 µM | [16] > 100 µM | [17] 42.1 µM

CCn1nc(C)c2c1C(=O)NC(C)C(=O)N2 (stereo unspecified)
inactive: [2] > 100 µM | [19] > 100 µM | [7] > 100 µM | [8] > 100 µM | [9] > 100 µM | [10] > 100 µM | [11] > 100 µM | [12] > 100 µM | [13] 36.6 µM | [14] > 100 µM | [15] > 100 µM | [18] > 100 µM | [16] > 100 µM | [17] > 100 µM

O=C1Nc2cc(F)ccc2C1=O
inactive: [1] > 100 µM | [2] 72.3 µM | [4] > 100 µM | [5] > 100 µM | [6] > 100 µM | [7] > 100 µM | [8] > 100 µM | [10] > 100 µM | [11] > 100 µM | [12] > 100 µM | [13] > 100 µM | [14] > 100 µM | [15] 73.3 µM | [18] > 100 µM | [16] > 100 µM | [17] > 100 µM

CC(=O)N1C(C(=O)NC2CCCCC2)CSC1c1ccccc1 (stereo unspecified)
inactive: [1] > 100 µM | [19] > 100 µM | [3] > 100 µM | [4] > 100 µM | [5] > 100 µM | [6] 51.6 µM | [7] > 100 µM | [8] > 100 µM | [9] > 100 µM | [10] > 100 µM | [12] > 100 µM | [13] > 100 µM | [14] > 100 µM | [15] > 100 µM | [18] > 100 µM | [16] > 100 µM | [17] > 100 µM

CCC(CC)n1cc(C(=O)NC(=O)NCCCCCOC(=O)CCCCCCCCCCC(=O)OCCCCCNC(=O)NC(=O)c2cn(C(CC)CC)c(=O)[nH]c2=O)c(=O)[nH]c1=O
inactive: [1] > 100 µM | [2] > 100 µM | [4] > 100 µM | [5] > 100 µM | [6] > 100 µM | [7] > 100 µM | [8] > 100 µM | [10] > 100 µM | [11] > 100 µM | [12] > 100 µM | [13] > 100 µM | [14] 27.7 µM | [15] > 100 µM | [18] 88.3 µM | [16] > 100 µM | [17] > 100 µM

Cc1nc2ccc(Br)cc2c(=O)n1-c1ccc(N)cc1
inactive: [1] > 100 µM | [2] > 100 µM | [19] > 100 µM | [3] > 100 µM | [4] > 100 µM | [5] > 100 µM | [6] > 100 µM | [7] > 100 µM | [8] > 100 µM | [9] > 100 µM | [10] > 100 µM | [11] > 100 µM | [12] > 100 µM | [13] > 100 µM | [14] > 100 µM | [15] > 100 µM | [16] > 100 µM | [17] > 100 µM

O=S(=O)(O)c1cc(S(=O)(=O)O)c2cc(/N=N/c3ccc(/N=N/c4ccc(/C=C/c5ccc(/N=[N+](/[O-])c6ccc(/C=C/c7ccc(/N=N/c8ccc(/N=N/c9ccc%10cc(S(=O)(=O)O)cc(S(=O)(=O)O)c%10c9)cc8)cc7S(=O)(=O)O)c(S(=O)(=O)O)c6)cc5S(=O)(=O)O)c(S(=O)(=O)O)c4)cc3)ccc2c1
inactive: [1] > 100 µM | [2] 50.7 µM | [3] > 100 µM | [4] > 79.3 µM | [5] > 62.8 µM | [6] > 50.5 µM | [7] > 48.1 µM | [8] > 79.3 µM | [10] > 33 µM | [11] > 100 µM | [12] > 66.7 µM | [13] > 54.1 µM | [14] 25.9 µM | [15] > 10 µM | [18] > 55.8 µM | [16] > 60.3 µM | [17] 7.93 µM

C1=Cc2nc1c(-c1ccccc1)c1ccc([n-]1)c(-c1ccccc1)c1nc(c(-c3ccccc3)c3ccc([n-]3)c2-c2ccccc2)C=C1.[Zn+2]
inactive: [1] > 100 µM | [2] > 100 µM | [4] > 100 µM | [5] > 100 µM | [6] > 100 µM | [7] > 100 µM | [8] > 100 µM | [10] > 100 µM | [11] > 100 µM | [12] > 100 µM | [13] > 100 µM | [14] > 100 µM | [15] > 100 µM | [18] > 100 µM | [16] > 100 µM | [17] > 100 µM

Source: ChEMBL document CHEMBL1201862, “PubChem BioAssay data set” (2004)
